# Where a name gives a salt, the structure may show the parent alone. Read-outs that look alike come from different tables or passages of the source.
# Experiments:
# [1] = Dissolution of vilazodone hydrochloride in ethanol aqueous solution; assay type: physicochemical; details: 10 mg
# Description: (§1) 10 mg of vilazodone hydrochloride solid powder was put into a 4 ml EP tube. 1 ml of ethanol aqueous solution of different concentrations was added to each tube separately, and the tubes were sonicated in a water bath for 30 minutes. The dissolution of the powder was observed; after the samples were placed at room temperature for 24 h, the appearance of the samples was observed and whether there was precipitation was noted.
# [2] = cited from earlier work
# [3] = Dissolution of vilazodone hydrochloride in acetone aqueous solution; assay type: physicochemical; details: 10 mg
# Description: 10 mg of vilazodone hydrochloride solid powder was put into a 4 ml EP tube. 1 ml of acetone aqueous solution of different concentrations was added to each tube separately, and the tubes were sonicated in a water bath for 30 minutes. The dissolution of the powder was observed; if the powder was dissolved quickly, a small amount of powder was continued to add to increase the concentration of the sample and was dissolved ultrasonically; finally, the solution samples were placed at room temperature for 24 hours to observe whether there was precipitation.
# [4] = Dissolution of vilazodone hydrochloride in methanol aqueous solution; assay type: physicochemical; details: 30 mg
# Description: 30 mg of vilazodone hydrochloride solid powder was put into a 10 ml EP tube 3 ml of methanol aqueous solution of different concentrations was added to each tube separately, and the tubes were sonicated in a water bath for 30 minutes. The dissolution of the powders was observed; if the powder was dissolved quickly, a small amount of powder was continued to add to increase the concentration of the sample and was dissolved ultrasonically; finally, the solution samples were placed at room temperature for 24 hours to observe whether there was precipitation.
# [5] = Dissolution of vilazodone in different organic solvents; assay type: physicochemical; details: 10 mg/ml, sonicated 30 min, room temperature 24 h
# Description: as §1, with “dichloromethane, methanol, ethanol, acetone and ethyl acetate” for “ethanol aqueous solution of different concentrations”
structure (smiles),measurement,setting,value
"N#Cc1ccc2[nH]cc(CCCCN3CCN(c4ccc5oc(C(N)=O)cc5c4)CC3)c2c1 [vilazodone hydrochloride, 5-{4-[4-(5-cyano-3-indole)-butyl]-1-piperazinyl}-coumarone-2-carboxamide]",Phenomenon (dissolution),[1]; Ethanol 0.1 ml + Water 0.9 ml,"Insoluble, a lot of precipitation"
same,Phenomenon (dissolution),[1]; Ethanol 0.2 ml + Water 0.8 ml,"Insoluble, a lot of precipitation"
same,Phenomenon (dissolution),[1]; Ethanol 0.3 ml + Water 0.7 ml,"Insoluble, a lot of precipitation"
same,Phenomenon (dissolution),[1]; Ethanol 0.4 ml + Water 0.6 ml,"Dissolved, precipitate after 1 day"
same,Phenomenon (dissolution),[1]; Ethanol 0.6 ml + Water 0.4 ml,"Dissolved, precipitate after 1 day"
same,Phenomenon (dissolution),[1]; Ethanol 0.8 ml + Water 0.2 ml,"Insoluble, a lot of precipitation"
same,Phenomenon (dissolution),[1]; Ethanol 0.9 ml + Water 0.1 ml,"Insoluble, a lot of precipitation"
same,solubility,[2]; environment with pH 3.1,a certain solubility
same,solubility,[2]; gastric juice (pH 1.2) and intestinal juice (pH 4.5 to 6.8),poor solubility
same,Phenomenon (dissolution),[3]; Acetone 0.1 ml + Water 0.9 ml,"Insoluble, a lot of precipitation"
same,Phenomenon (dissolution),[3]; Acetone 0.2 ml + Water 0.8 ml,"Insoluble, a lot of precipitation"
same,Phenomenon (dissolution),[3]; Acetone 0.3 ml + Water 0.7 ml,"Insoluble, a lot of precipitation"
same,Phenomenon (dissolution),[3]; Acetone 0.9 ml + Water 0.1 ml,"Insoluble, a lot of precipitation"
same,Result (dissolution),[4]; Methanol 0.3 ml + Water 2.7 ml,"Insoluble, a lot of precipitation"
same,Result (dissolution),[4]; Methanol 0.6 ml + Water 2.4 ml,"Insoluble, a lot of precipitation"
same,Result (dissolution),[4]; Methanol 0.9 ml + Water 2.1 ml,"Insoluble, a lot of precipitation"
same,Result (dissolution),[4]; Methanol 1.2 ml + Water 1.8 ml,"Insoluble, a lot of precipitation"
same,Phenomenon (dissolution),[5]; Acetone,"Insoluble, a little of precipitation"
same,Phenomenon (dissolution),[5]; Dichloromethane,"Insoluble, a lot of precipitation"
same,Phenomenon (dissolution),[5]; Ethanol,"Insoluble, a little of precipitation"
same,Phenomenon (dissolution),[5]; Ethyl acetate,"Insoluble, a lot of precipitation"
same,Phenomenon (dissolution),[5]; Methanol,"Insoluble, a little of precipitation"
